Assay results published in patent US20030069194A1, “Inhibition of viral replication by targeting RNA-DNA complexes” (priority 2001, published 2003).
Counter-ions that a name gives are not always drawn.

Key:
18C-18R duplex = experiment: Isothermal titration calorimetry (ITC), 18C-18R duplex; assay type: binding, HIV-1; details: for ΔHb (binding enthalpy): 18C-18R duplex, ITC at 25° C.
Procedure: (§1) Isothermal calorimetric measurements were performed at 25° C. on a MicroCal VP-ITC (MicroCal, Inc., Northampton, Mass.). In a typical experiment, 5 μl aliquots of 500 μM aminoglycoside were injected from a 250 μl rotating (430 RPM) syringe into an isothermal sample chamber containing 1.31 mL of either a 18C-18R solution that was 10 μM in duplex or a 18C-18D solution that was 15 μM in duplex. Each experiment of this type was accompanied by the corresponding control experiment in which 5 μL aliquots of 500 μM drug were injected into a solution of buffer alone. The duration of each injection was 5 seconds and the delay between injections was 240 seconds. The initial delay prior to the first injection was 60 seconds. Each injection generated a heat burst curve (μcal/sec vs. sec). The area under each curve was determined by integration [using the Origin version 5.0 software (MicroCal, Inc., Northampton, Mass.)] to obtain a measure of the heat associated with that injection. The heat associated with each drug-buffer injection was subtracted from the corresponding heat associated with each drug-duplex injection to yield the heat of drug binding for that injection. The calorimeter was calibrated both electronically and chemically. Pilch, D. S., Kirolos, M. A., Liu, X., Plum, G. E. & Breslauer, K. J. Berenil [1,3-bis-(4′-amidinophenyl)triazene] binding to DNA duplexes and to a RNA duplex: Evidence for both intercalative and minor groove binding properties, Biochemistry 34, 9962-9976 (1995). All duplex solutions were preheated for 5 minutes at 85° C. and then cooled to room temperature prior to their use in the ITC experiments. The buffer solutions for the ITC experiments contained 10 mM PIPES (pH 6.0) and 5 mM MgCl2.
(§2) Table 1 summarizes the apparent association constants at 25° C. that were calculated using equations (1)-(3) for neomycin and paromomycin binding to the 18C-18R and 18C-18D duplexes. The drug binding enthalpies (ΔHb) required for extrapolation of the binding constants at Tm to common reference temperature of 25° C. using equation (3) were determined using isothermal titration calorinietry (ITC). […] Each of the heat burst curves in FIG. 4 corresponds to a single drug injection, with the seven injections resulting in a final drug to duplex ratio (rdup) of either 0.83 (when 18C-18D served as the target duplex) or 1.25 (when 18C-18R served as the target duplex). The areas under these heat burst curves were determined by integration to yield the associated injection heats. For each titration, the seven injection heats were similar in magnitude, an observation consistent with all of the injected drug being bound by the host duplex. These injection heats were corrected by subtraction of the corresponding dilution heats derived from the injection of identical amounts of drug into buffer alone. The resulting corrected injection heats then were divided by the total concentration of injected drug and averaged to yield the ΔHb values listed in Table 1.

[1] = tested on: 18C-18D duplex (RNase H substrate of HIV-1 RT); experiment: RT-induced RNase H cleavage of the 18C-18D duplex (gel assay); assay type: biochemical; details: for hierarchy of inhibition of RT-induced cleavage: 18C-18D duplex, aminoglycosides 2.0 mM, FIG. 2b, 2c
Source text: The second model oligonucleotide was a 18mer chimeric duplex (18C-18D). 18C-18D mimics a RNase H substrate during plus-strand strong-stop synthesis (FIG. 2a), which occurs following minus-strand DNA synthesis. Fedoroff, O. Y., et. al., B. R. Structural variation among retroviral primer-DNA junctions: Solution structure of the HIV-1 (−)-strand Okazaki fragment r(gcca)d(CTGC)-d(GCAGTGGC), Biochemistry 35,11070-11080 (1996). For the 18C-18D duplex, RT cleaves the RNA portion of the chimeric strand (18C) opposite the DNA strand (18D) at only a single site (FIGS. 2a, b), in marked contrast to the three cleavage sites observed in the 18C-18Rduplex. This unique cleavage site lies between base positions +1 and +2 (counting from the RNA-DNA junction in the 5′ direction on the cleaved chimeric strand). Furfine, E. S. & Reardon, J. E., Human immunodeficiency virus reverse transcriptase ribonuclease H: Specificity of tRNA(Lys3)-primer excision, Biochemistry 30, 7041-7046 (1991); Smith, J. S. & Roth, M. J. Specificity of human immunodeficiency virus-1 reverse transcriptase-associated ribonuclease H in removal of the minus-strand primer tRNA(Lys3), J. Biol. Chem. 267, 15071-15079 (1992). […] As noted above for the 18C-18R duplex, this hierarchy of cleavage inhibition correlates with the relative binding affinities of the three ligands for the 18C-18D duplex.
Recombinant HIV-1 RT p66 was isolated from Escherichia coli JM 109. Pandey, V. N. et al, Role of methionine 184 of human immunodeficiency virus type-1 reverse transcriptase in the polymerase function and fidelity of DNA synthesis, Biochemistry 35, 2168-2179 (1996). The 18C and 18R oligonucleotides were purchased from Dharmacon Research, Inc. (Lafayette, Colo.). The 18D oligonucleotide was obtained from Integrated DNA Technologies, Inc. (Coralville, Iowa). Neomycin trisulfate trihydrate, the free base of tobramycin, paromomycin sulfate, and kanamycin B sulfate were obtained from Fluka, while kanamycin A monosulfate and ribostamycin sulfate dihydrate were obtained from Sigma.
The RNase H activity of RT was assayed in a 10 μl reaction mixture containing 110 mM PIPES (pH 6.0) and 5 mM MgCl2. Ten pmol of either 18C or 18R were ^32P-labeled at the 5′ end using T4 polynucleotide kinase. For the cleavage experiments, different aminoglycosides were mixed with 0.5 μM of target duplex. A small amount of RT, 0.1 μg, was then added to initiate the cleavage reaction. After incubation at 37° C. for 30 min, the reaction was stopped by addition of 3 M urea containing a mixture of bromophenol blue and xylene cyanol. Denaturation of the 18C-18R duplex required the addition of 5 M urea as well as heating at 95° C. for 5 min prior to gel loading. The cleavage products were resolved in a 10% polyacrylamide gel containing 8 M urea. The gels were subsequently analyzed using a phosphoimager (Molecular Dynamics, Inc.).
To determine the nature of the aminoglycoside-induced inhibition of RT-catalyzed RNase H cleavage, the impact of RT concentration on neomycin-induced inhibition was examined. […] In the presence of 1 mM neomycin, increasing the concentrations of RT overcomes the RNase H inhibitory effect of the drug.

18C-18D duplex = experiment: Isothermal titration calorimetry (ITC), 18C-18D duplex; assay type: binding, HIV-1; details: for ΔHb (binding enthalpy): 18C-18D duplex, ITC at 25° C.
Procedure: as §1, §2

[2] = listed as Neomycin, trisulfate trihydrate

Molecule: NC[C@@H]1O[C@H](O[C@H]2[C@@H](O)[C@H](O[C@@H]3[C@@H](O)[C@H](N)C[C@H](N)[C@H]3O[C@H]3O[C@H](CO)[C@@H](O)[C@H](O)[C@H]3N)O[C@@H]2CO)[C@H](N)[C@@H](O)[C@@H]1O [paromomycin, paromomycin sulfate]
- ΔHb (binding enthalpy) (18C-18R duplex): -4.5 kcal/mol
- ΔHb (binding enthalpy) (18C-18R duplex; listed as Paromomycin): -4.5 ± 0.1 kcal/mol
- hierarchy of inhibition of RT-induced cleavage [1]: neomycin>paromomycin>ribostamycin
- ΔHb (binding enthalpy) (18C-18D duplex): -3.6 kcal/mol
- ΔHb (binding enthalpy) (18C-18D duplex; listed as Paromomycin): -3.6 ± 0.1 kcal/mol

Molecule: Neomycin trisulfate trihydrate
- ΔHb (binding enthalpy) (18C-18R duplex; [2]): -8.8 ± 0.1 kcal/mol
- ΔHb (binding enthalpy) (18C-18R duplex; trisulfate trihydrate): -8.8 kcal/mol
- binding stoichiometry (18C-18R duplex; ITC, 18C-18R): approximately five
- nature of inhibition of RNase H activity of RT ([1]; 1 mM neomycin, increasing RT 0.1-2.7 μg, FIG. 2d): competitive
- hierarchy of inhibition of RT-induced cleavage [1]: neomycin>paromomycin>ribostamycin
- neomycin required for 50% inhibition of RT-induced cleavage, 18C-18D relative to 18C-18R ([1]; comparison of FIGS. 1c and 2c): approximately 420 times
- ΔHb (binding enthalpy) (18C-18D duplex; [2]): -6.1 ± 0.1 kcal/mol
- ΔHb (binding enthalpy) (18C-18D duplex; trisulfate trihydrate): -6.1 kcal/mol
- binding stoichiometry (18C-18D duplex; ITC, 18C-18D): three
